This note sets out measurements from US9120749B2, “Quinoline derivatives and MELK inhibitors containing the same” (ONCOTHERAPY SCIENCE, INC., priority 2010, dated 2015).

The subject of one assay is 22Rv1 cells. Briefly: Cell-based assay: anti-proliferative activity, Cell Counting Kit-8, 72 hours (22Rv1). Conditions: Homo sapiens. In general terms: Tetrazolium dyes change colour on reduction, which living cells bring about.
For the next assay, the system named is DU4475 cells. Briefly: Cell-based assay: anti-proliferative activity, Cell Counting Kit-8, 72 hours (DU4475). The following applies: Homo sapiens, DU-4475.
In the next assay the test system is T47D cells. Briefly: Cell-based assay: anti-proliferative activity, Cell Counting Kit-8, 72 hours (T47D). The following applies: Homo sapiens, T47D, 72 h. A digest of the protocol:
(§1)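 T47D, A549 and BT-549 cells, with MELK-negative HT-1197 as control (MELK status checked by western blot), seeded at 2,000–3,000 cells/well. Growth measured by CCK-8 72 hours after inhibitor exposure; IC50 values calculated.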

The subject of a further assay is HT-1197 cells. Briefly: Cell-based assay: anti-proliferative activity, Cell Counting Kit-8, 72 hours (HT-1197, negative control without MELK expression). Conditions: Homo sapiens, HT1197, 72 h, HT1197 cells (negative control), 72 hours. Put shortly:
as §1

Another assay deals with A549 cells. Briefly: Cell-based assay: anti-proliferative activity, Cell Counting Kit-8, 72 hours (A549). The following applies: Homo sapiens, A549, 72 h, 72 hours. Put shortly: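 A549 cells were seeded in 96-well plates and exposed to candidate inhibitors for 72 hours. Cell growth was then measured with Cell Counting Kit-8, and IC50 values were calculated from the resulting growth data.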

For another assay, the target named is MELK (Homo sapiens, UniProt Q14680). Briefly: Kinase assay: MELK activity, phosphorylation of FITC-labeled histone H3 peptide measured by IMAP fluorescence polarization. In kind it is biochemical. Conditions: MELK kinase assay, IMAP fluorescence polarization, 50 micro-M ATP; read-out: IC50 (μM) (kinase assay). Put shortly:
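A FITC-labelled histone H3 peptide served as substrate, with compounds serially diluted to 1% DMSO final. Reactions were stopped with three volumes of IMAP progressive binding solution. After 0.5 h at room temperature, fluorescence polarization was read.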
(In general: Polarisation of emitted light reports the rotation of a fluorescent probe.)

Molecules are shown by their SMILES. Structures can show the parent of a compound that is named as a salt.

Chain of MELK (Q14680 whole entry, looked up): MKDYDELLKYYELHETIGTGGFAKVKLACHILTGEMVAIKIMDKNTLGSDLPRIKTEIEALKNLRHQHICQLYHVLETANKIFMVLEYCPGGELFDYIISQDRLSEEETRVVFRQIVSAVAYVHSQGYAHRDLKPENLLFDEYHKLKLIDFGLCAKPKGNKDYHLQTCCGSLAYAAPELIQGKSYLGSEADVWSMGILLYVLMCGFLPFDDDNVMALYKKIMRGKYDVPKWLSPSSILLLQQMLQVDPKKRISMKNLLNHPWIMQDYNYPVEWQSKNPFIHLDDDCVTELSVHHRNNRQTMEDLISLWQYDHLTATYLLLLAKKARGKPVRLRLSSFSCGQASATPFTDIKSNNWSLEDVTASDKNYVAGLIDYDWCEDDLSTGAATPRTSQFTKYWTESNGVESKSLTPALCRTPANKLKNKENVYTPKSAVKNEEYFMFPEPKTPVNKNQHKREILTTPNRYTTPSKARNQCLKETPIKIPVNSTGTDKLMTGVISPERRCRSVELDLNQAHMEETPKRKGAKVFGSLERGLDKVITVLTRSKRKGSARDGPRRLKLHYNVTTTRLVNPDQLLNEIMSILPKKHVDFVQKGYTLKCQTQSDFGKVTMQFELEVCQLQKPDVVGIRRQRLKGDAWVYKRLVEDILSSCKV

Consider `CC(=O)c1cnc2cc(F)c(-c3cc(Cl)c(O)c(Cl)c3)cc2c1N[C@H]1CC[C@H](CN(C)C)CC1` [Example 903, 1-(6-(3,5-dichloro-4-hydroxyphenyl)-4-((1R,4R)-4-((dimethylamino)methyl)cyclohexyl)amino)-7-fluoroquinolin-3-yl)ethanone hydrochloride], for which the IC50 was 0.27 µM in the assay with 22Rv1 cells; 0.16 µM in the assay with DU4475 cells; 0.55 µM in the assay with T47D cells; 1.5 µM in the assay on HT-1197 cells; 0.36 µM in the assay on A549 cells; 0.0017 µM at MELK.

As for `CC(=O)c1cnc2ccc(-c3cc(F)c(O)c(Cl)c3)cc2c1N[C@H]1CC[C@H](NC(=O)[C@H](C)N)CC1` (stereo in doubt) [Example 878], the IC50 in the assay with 22Rv1 cells stood at 0.096 µM; with DU4475 cells, 0.03 µM; in the assay with T47D cells, 0.027 µM; in the assay with HT-1197 cells, 21 µM; in the assay with A549 cells it was 0.83 µM; on MELK it was 0.0079 µM.

Turning to `CC(=O)c1cnc2ccc(-c3cc(Cl)c(O)c(Cl)c3)cc2c1Nc1cc(CCN2CCCC2)cnc1C` [Example 897, 1-(6-(3,5-dichloro-4-hydroxyphenyl)-4-((2-methyl-5-(2-(pyrrolidin-1-yl)ethyl)pyridin-3-yl)amino)quinolin-3-yl)ethanone], the IC50 in the assay on 22Rv1 cells came to 11 µM; in the assay with DU4475 cells, 8.8 µM; with T47D cells it was 4.5 µM; with HT-1197 cells, 71 µM; in the assay on A549 cells, 8.5 µM; at MELK it was 0.021 µM.

As for `CC(=O)c1cnc2ccc(-c3ccc4nc[nH]c4c3)cc2c1Nc1ccc(OCCN(C)C)nc1` [Example 902, 1-(6-(1H-benzo[d]imidazol-6-yl)-4-((6-(2-(dimethylamino)ethoxy)pyridin-3-yl)amino)quinolin-3-yl) ethanone hydrochloride], the IC50 in the assay with 22Rv1 cells amounted to 3.1 µM; in the assay on DU4475 cells it was 14 µM; with T47D cells, 3.3 µM; in the assay on HT-1197 cells, 12 µM; in the assay on A549 cells it was 2.9 µM; at MELK it was 0.042 µM.

For `COc1cc(-c2cc3c(N[C@H]4CC[C@H](CN5CCCC5)CC4)c(C(C)=O)cnc3cc2F)cc(Cl)c1O` [Example 926, 1-(6-(3-chloro-4-hydroxy-5-methoxy-phenyl)-7-fluoro-4-((1R,4R)-4-(pyrrolidin-1-ylmethyl)cyclohexyl)amino)quinolin-3-yl)ethanone hydrochloride], the IC50 in the assay with 22Rv1 cells is 0.69 µM; with DU4475 cells, 0.55 µM; in the assay with T47D cells it was 2.7 µM; with HT-1197 cells, 5 µM; in the assay with A549 cells, 0.61 µM; on MELK, 0.0079 µM.

On to `CS(=O)(=O)c1cnc2ccc(-c3cc(Cl)c(O)c(Cl)c3)cc2c1Nc1ccc(N2CCCC(N)C2)nc1` (stereo not drawn) [Example 913, 4-(4-(6-(3-aminopiperidin-1-yl)pyridin-3-ylamino)-3-(methylsulfonyl)quinolin-6-yl)-2,6-dichlorophenol], for which the IC50 in the assay on 22Rv1 cells is 0.58 µM; in the assay with DU4475 cells, 0.025 µM; in the assay on T47D cells, 0.27 µM; with HT-1197 cells it was 100 µM; in the assay with A549 cells, 2.6 µM; at MELK it was 0.00094 µM.

Turning to `CC(=O)c1cnc2ccc(-c3cc(Cl)c(O)c(Cl)c3)cc2c1N[C@H]1CC[C@H](C(=O)NCCN(C)C)CC1` [Example 892, (1r,4r)-4-((3-acetyl-6-(3,5-dichloro-4-hydroxyphenyl)quinolin-4-yl)amino)-N-(2-(dimethylamino)ethyl)cyclo-hexanecarboxamide hydrochloride], the IC50 in the assay on 22Rv1 cells came out at 1.1 µM; in the assay with DU4475 cells it was 0.4 µM; with T47D cells it was 0.59 µM; in the assay on HT-1197 cells it was 100 µM; in the assay on A549 cells, 6.3 µM; on MELK it was 0.0023 µM.

The term IC50 denotes the concentration that gives 50% inhibition.
